Test results taken from PubChem BioAssay AID2202554 (NIEHS Division of Translational Toxicology (DTT)).
Results filed as inconclusive are left out. Calls of active or inactive are those of the source. How the calls were made is not given here.

The compounds below were run on S. typhimurium/E. coli reverse mutation, colony counts (assay: Bacterial reverse mutation test (aka Ames test) summary data).
Method in brief: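 Revertant colony counts on plates, compared with untreated controls, after about two days of growth. Exposure with or without liver S9 (rat/hamster/mouse), dose range per strain, 20-min 37° C preincubation or direct plate incorporation. Strains: his⁻ Salmonella, trp⁻ E. coli WP2 uvrA pKM101.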

| Structure (SMILES) | outcome |
| --- | --- |
| CCC=O | inactive; negative |
| COc1cc(-c2ccc(N=Nc3c(S(=O)(=O)O)cc4cc(S(=O)(=O)O)cc(N)c4c3O)c(OC)c2)ccc1N=Nc1c(S(=O)(=O)O)cc2cc(S(=O)(=O)O)cc(N)c2c1O | inactive; negative |
| CC(=O)C(N=Nc1ccc(-c2ccc(N=NC(C(C)=O)C(=O)Nc3ccccc3)c(Cl)c2)cc1Cl)C(=O)Nc1ccccc1 (stereo not given) | inactive; negative |
| c1ccsc1 | inactive; negative |
| COc1cc(N)ccc1C | active; positive |
| COP(=O)(OC)C(O)C(Cl)(Cl)Cl (stereo not given) | active; weakly positive |
| O=C1OC(=O)c2ccccc21 | inactive; negative |
| Nc1c(Br)cc(Br)c2c1C(=O)c1ccccc1C2=O | active; positive |
| CCOP(=S)(OCC)OP(=S)(OCC)OCC | active; positive |
| COC[CH2][Hg+] | inactive; negative |
| O=C(c1ccccc1)C(O)c1ccccc1 (stereo not given) | active; weakly positive |
| CN(C)N=Nc1nc[nH]c1C(N)=O | active; positive |
| CC(C)(C)N | inactive; negative |
| c1ccc2ncccc2c1 | active; positive |
| Cc1ccc(CO)cc1 | inactive; negative |
| COc1ccc(C)cc1N | active; positive |
| C=C(Cl)CSC(=S)N(CC)CC | active; positive |
| Nc1ccccn1 | inactive; negative |
| ClCC(Cl)CCl | active; positive |
| Cc1ccc(N)cc1Cl | active; weakly positive |
| O=C(NC(S)c1nc2ccccc2s1)NC(S)c1nc2ccccc2s1 (stereo not given) | active; positive |
| N=C1C=CC(=C(c2ccc(N)cc2)c2ccc(N)cc2)C=C1 | active; positive |

| Structure (SMILES) | outcome |
| --- | --- |
| CCCNCCC | inactive; negative |
| O=Cc1c(Cl)cccc1Cl | inactive; negative |
| Oc1ccc(O)cc1 | inactive; negative |
| c1ccc(CSCc2ccccc2)cc1 | inactive; negative |
| C1COCOC1 | active; weakly positive |
| CCOc1ccc2c(c1)C(C)=CC(C)(C)N2 | inactive; negative |
| S=C([S-])NCCNC(=S)[S-].[Zn+2] | inactive; negative |
| FC(F)(F)C(F)(F)I | active; positive |
| COCCOCCOCCOC | active; positive |
| Cc1ccc(OCC2CO2)cc1 (stereo not given) | active; positive |
| CC(C)(C)OOC(C)(C)C | inactive; negative |
| COC(C)=O | inactive; negative |
| Nc1nc(N)nc(N)n1 | inactive; negative |
| CC[N+](=O)[O-] | inactive; negative |
| O=C(O)C1=NN(c2ccc(S(=O)(=O)O)cc2)C(=O)C1N=Nc1ccc(S(=O)(=O)[O-])cc1.O=C(O)C1=NN(c2ccc(S(=O)(=O)O)cc2)C(=O)C1N=Nc1ccc(S(=O)(=O)[O-])cc1.O=C(O)C1=NN(c2ccc(S(=O)(=O)O)cc2)C(=O)C1N=Nc1ccc(S(=O)(=O)[O-])cc1.[Al+3] (stereo not given) | inactive; negative |
| Nc1nc2cc(Cl)c(Cl)cc2s1 | inactive; negative |
| CCCCCCCCS(=O)C(C)Cc1ccc2c(c1)OCO2 (stereo not given) | inactive; negative |
| [Na+] | inactive; negative |
| C=CC#N | active; positive |
| CC(=O)Nc1ccccc1N | active; positive |
| Nc1nccs1 | active; positive |
| Cc1ccc([N+](=O)[O-])cc1C(=O)O | active; positive |

| Structure (SMILES) | outcome |
| --- | --- |
| CCCCCCC(=O)O | inactive; negative |
| Clc1cc2c(cc1Cl)Oc1cc(Cl)c(Cl)cc1O2 | inactive; negative |
| CCCCNCCCC | inactive; negative |
| CC(C)S | inactive; negative |
| CCOP(=S)(OCC)Oc1cc(C)nc(C(C)C)n1 | inactive; negative |
| Cc1ccc(N)c(N)c1 | active; positive |
| O=C(O)c1ccc(Cl)cc1Cl | inactive; negative |
| CCCCNC(=O)NS(=O)(=O)c1ccc(C)cc1 | inactive; negative |
| O=C(Nc1ccccc1)c1cc2ccccc2c(N=Nc2cc(Cl)ccc2Cl)c1O | active; weakly positive |
| CCNc1ccccc1 | inactive; negative |
| CN1CCC(CN2c3ccccc3Sc3ccccc32)C1 (stereo not given) | inactive; negative |
| C=CCO | inactive; negative |
| O=C(OC1CCCCC1)c1ccccc1C(=O)OC1CCCCC1 | inactive; negative |
| CC1CNCC(C)O1 (stereo not given) | active; positive |
| CCCCCCCCCCCC(=O)[O][Sn]([CH2]CCC)([CH2]CCC)[O]C(=O)CCCCCCCCCCC | inactive; negative |
| Nc1ccc(Cl)cc1N | active; positive |
| CC1=C(/C=C/C(C)=C/C=C/C(C)=C/C=O)C(C)(C)CCC1 | active; positive |
| CCCCCCCCCCCCCCC1CO1 (stereo not given) | inactive; negative |
| Cc1ccc2cccnc2c1 | active; positive |
| C[C@H](CCC(=O)O)[C@H]1CC[C@H]2[C@@H]3CC[C@@H]4C[C@H](O)CC[C@]4(C)[C@H]3CC[C@]12C | inactive; negative |
| Oc1ccc(Cl)cc1Sc1cc(Cl)ccc1O | inactive; negative |
